Laboratory results as given in US4871109A (priority 1988, dated 1989).

What was measured:
rats = conditions: rat, in vivo
in vivo = conditions: rat

## FC(F)(F)OC(F)(F)C(F)(F)OC(F)(F)C(F)(F)OC(F)(F)C(F)(F)OC(F)(F)C(F)(F)OC(F)(F)C(F)(F)OC(F)(F)C(F)(F)OC(F)(F)C(F)(F)OC(F)(F)F [PFHG, 1,1,1,3,3,4,4,6,6,7,7,9,9,10,10,12,12,13,13,15,15,16,16,18, 18,19,19,21,21,22,22,24,24,24-tetratriacontafluoro-2,5,8,11, 14,17,20,23-octaoxatetetracosane]
rats
  toxicity (in words): essentially nontoxic
In vivo
  LD50: > 10000 mg/kg
